Values quoted from earlier work as cited in patent publication US11400063B2, “Early administration of low-dose colchicine after myocardial infarction” (INSTITUT DE CARDIOLOGIE DE MONTREAL, priority 2019, dated 2022).

Test system: patients with acute coronary syndromes (ACS)
Conditions: COPS, cited from earlier work

COc1cc2c(c(OC)c1OC)-c1ccc(OC)c(=O)cc1[C@@H](NC(C)=O)CC2 [Colchicine, colchicine]
Primary composite outcome (cardiovascular mortality, myocardial infarction, ischemic stroke, urgent revascularization), Events N (N = 396, median follow-up 12 months): 19 N
Cardiovascular mortality, HR (95% CI) (colchicine vs placebo): 3.09 (0.32-29.71)
Ischemic stroke, HR (95% CI) (colchicine vs placebo): 0.34 (0.07-1.70)
Myocardial infarction, HR (95% CI) (colchicine vs placebo): 0.52 (0.25-1.07)
Primary composite outcome, HR (95% CI) (colchicine vs placebo): 0.47 (0.27-0.82)
Urgent coronary revascularization, HR (95% CI) (colchicine vs placebo): 0.26 (0.07-0.92)
all-cause mortality, HR (colchicine vs placebo): 8.20
Cardiovascular mortality, Events %: 0.8%
Cardiovascular mortality, Events N: 3 N
Ischemic stroke, Events %: 0.5%
Ischemic stroke, Events N: 2 N
Myocardial infarction, Events %: 3.7%
Myocardial infarction, Events N: 11 N
Primary composite outcome, Events %: 4.8%
Urgent coronary revascularization, Events %: 0.8%
Urgent coronary revascularization, Events N: 3 N
